This passage reports chromatographic logP results from patent publication US20200095223A1, “NOVEL TRIAZOLETHIONE DERIVATIVES” (priority 2017, published 2020).

The data set is described as follows: Log P by HPLC on reversed phase columns (EEC directive 79/831 Annex V.A8). The data set is classed as physicochemical. As to conditions: reversed phase HPLC column; method [a]: LC-UV, acidic range, 0.1% formic acid in water and acetonitrile as eluent. On the procedure: Log P values: […] If more than one Log P value is available within the same method, all the values are given and separated by “+”. Calibration was done with straight-chain alkan2-ones (with 3 to 16 carbon atoms) with known Log P values (measurement of Log P values using retention times with linear interpolation between successive alkanones). Lambda-max-values were determined using UV-spectra from 200 nm to 400 nm and the peak values of the chromatographic signals.
By chromatographic logP is commonly meant lipophilicity estimated from chromatographic retention. Read a low chromatographic logP as lower lipophilicity. As for `CC(O)(Cn1nc[nH]c1=S)c1ccc(Oc2ccc(Br)cc2)nc1C(F)(F)F` (centres unmarked) [I-S-01, 2-[2-[6-(4-bromophenoxy)-2-(trifluoromethyl)-3-pyridyl]-2-hydroxy-propyl]-4H-1,2,4-triazole-3-thione], the chromatographic logP is 3.21. With `CC(O)(Cn1nc[nH]c1=S)c1ccc(Oc2ccccc2)nc1C(F)(F)F` (centres unmarked) [I-S-02, 2-[2-hydroxy-2-[6-phenoxy-2-(trifluoromethyl)-3-pyridyl]propyl]-4H-1,2,4-triazole-3-thione], the chromatographic logP was determined as 2.66.

The compound `CC(O)(Cn1nc[nH]c1=S)c1ccc(Oc2ccc(Cl)cc2)nc1C(F)(F)F` (centres unmarked) [I-S-03, 2-[2-[6-(4-chlorophenoxy)-2-(trifluoromethyl)-3-pyridyl]-2-hydroxy-propyl]-4H-1,2,4-triazole-3-thione] displayed a chromatographic logP of 3.11.

With `OC(Cn1nc[nH]c1=S)(c1ccc(Oc2ccc(Br)cc2)nc1C(F)(F)F)C1CC1` (centres unmarked) [I-S-04, 2-[2-[6-(4-bromophenoxy)-2-(trifluoromethyl)-3-pyridyl]-2-cyclopropyl-2-hydroxy-ethyl]-4H-1,2,4-triazole-3-thione], the chromatographic logP came to 3.87. `OC(Cn1nc[nH]c1=S)(c1ccc(Oc2ccccc2)nc1C(F)(F)F)C1CC1` (centres unmarked) [I-S-06, 2-[2-cyclopropyl-2-hydroxy-2-[6-phenoxy-2-(trifluoromethyl)-3-pyridyl]ethyl]-4H-1,2,4-triazole-3-thione] registered a chromatographic logP of 3.27.
